In data set [1] the target is SARS-CoV-2 replication–transcription complex (Severe acute respiratory syndrome coronavirus 2, UniProt P0DTD1). Briefly: SARS-CoV-2 polymerase assay. It counts as biochemical. Conditions: highest tested concentration of 100 µM.
For data set [2], the target named is cathepsin L (Homo sapiens, UniProt P07711). Nature of the data set: Cathepsin L inhibition. It counts as biochemical. Conditions: human protease involved in SARS-CoV-2 entry.
In data set [3] the test system is MERS-CoV. Briefly: microbe, parasite or virus in culture. The format is cell-based. Conditions: Middle East respiratory syndrome-related coronavirus, Huh-7, 42 h, read-out: MERS EC50.
In data set [4] the test system is SARS-CoV-1. Briefly: microbe, parasite or virus in culture. The format is cell-based. Conditions: Severe acute respiratory syndrome coronavirus, Vero C1008, read-out: SARS-CoV-1 EC50.
Data set [5] relates to SARS-CoV-2 spike pseudotyped VSV. Briefly: organism not typed. The format is cell-based. To be noted: Vero C1008, 24 h, read-out: SARS-CoV-2 pseudovirus neutralization EC50 (block of virus entry).
A short description of data set [6]: in vitro. To be noted: human.
Data set [7] relates to Chikungunya virus. Briefly: Chikungunya virus antiviral assay in Vero A cells. Conditions: read-out: Chikungunya virus EC50.
For data set [8], the system named is SARS-CoV-2. Conditions: VeroE6 cells, CC50/EC50.
Data set [9] has as its system SARS-CoV-2. Briefly: microbe, parasite or virus in culture. To be noted: Severe acute respiratory syndrome coronavirus 2, 96 h, read-out: SARS-CoV-2 EC50.
Data set [10] has as its target cathepsin B (Homo sapiens, UniProt P07858). Nature of the data set: Cathepsin B inhibition. It counts as biochemical. To be noted: human protease involved in SARS-CoV-2 entry.
For data set [11], the system named is MERS-CoV spike pseudotyped VSV. Briefly: organism not typed. The format is cell-based. To be noted: Vero C1008, 24 h, read-out: MERS pseudovirus neutralization EC50 (block of virus entry).
The target of data set [12] is SARS-CoV-2 Mpro (Severe acute respiratory syndrome coronavirus 2, UniProt P0DTD1). Briefly: SARS-CoV-2 main protease (Mpro) FRET assay. To be noted: highest tested concentration of 100 µM. The format is biochemical. As to the method:
Compounds were tested in a Förster resonance energy transfer (FRET) assay for inhibition of the SARS-CoV-2 Mpro. The peptide Dabcyl-KTSAVLQ↓SGFRKM-E(Edans)-NH2 (Biosyntan, Berlin, Germany) (↓ indicates the cleavage site), corresponding to the P7–P6′ residues of the nsp4–nsp5 processing site of the viral polyprotein pp1a/pp1ab, was used as the substrate. Quenching of the Edans fluorescence by the Dabcyl residue was eliminated after cleavage of the scissile bond between P1-Gln and P1′-Ser and the difference in fluorescence emission was measured with a Tecan Spark fluorescence plate reader, operated at an excitation wavelength of 360 nm and an emission wavelength of 460 nm.
Candidate compounds were kept in a DMSO stock solution; the Mpro was in a buffer containing 20 mM HEPES, 120 mM NaCl, 0.4 mM EDTA, 20% glycerol, pH 7.0. DTT (4 mM) was added to the buffer prior to running the assay. Following incubation of 50 nM SARS-CoV-2 Mpro with 100 µM of the candidate compound for 10 min at 37 °C, the reaction was initiated by the addition of 10 µM of the FRET substrate to each well. The final DMSO concentration was <2%.

Data set [13] concerns the target SARS-CoV-2 nsp14 (N7-methyltransferase activity) (Severe acute respiratory syndrome coronavirus 2, UniProt P0DTD1). Nature of the data set: Nsp14 RapidFire MS assay. Conditions: highest tested concentration of 100 µM. It counts as biochemical.
A short description of data set [14]: in vitro. To be noted: African green monkey.

One molecule from paper PMC8840742 (Molecules, 2022) can be followed below.

Usually EC50 stands for the concentration that produces a half-maximal response.

cathepsin L, sequence (P07711 114-333): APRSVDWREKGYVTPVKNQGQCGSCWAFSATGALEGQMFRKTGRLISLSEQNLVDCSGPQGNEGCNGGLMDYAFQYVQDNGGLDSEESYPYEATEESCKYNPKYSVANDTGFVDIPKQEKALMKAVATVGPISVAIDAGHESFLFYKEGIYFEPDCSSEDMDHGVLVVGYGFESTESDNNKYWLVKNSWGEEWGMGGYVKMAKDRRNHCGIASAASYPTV

For `c1ccc(CCN2CCC(Oc3ccccc3-c3nc(-c4ccncc4)no3)C2)cc1` (centres unmarked) [Compound 1, 5-(2-((1-Phenethylpyrrolidin-3-yl)oxy)phenyl)-3-(pyridin-4-yl)-1,2,4-oxadiazole], the “inhibitory activity on SARS-CoV-2 replication–transcription complex” value in [1] was “did not show any inhibitory activity”. Besides, the “activity against cathepsin L” value in data set [2] is “inactive”. Also, the EC50 is 5 µM in data set [3]; 4.2 ± 0.2 µM in data set [4]; 1.25 µM in data set [5]; over 100 µM in data set [7]; 4.7 ± 3 µM in data set [9]; 3.4 µM in data set [11]. Also, the figures for the CC50 in data set [6] and in data set [14] were over 20 µM and 21 ± 11 µM, respectively. Moreover, the “SI (CC50/EC50)” value in data set [8] is recorded as 4.5. Besides, the “activity against cathepsin B” value in data set [10] is “inactive”. Further, the “inhibitory activity on SARS-CoV-2 Mpro” value in data set [12] is “did not show any inhibitory activity”. Further, in [13], the “inhibitory activity on SARS-CoV-2 nsp14 (N7-methyltransferase activity)” value is on record as “did not show any inhibitory activity”.
